Source: patent US5968907A (priority 1997, dated 1999)

Experiments:
CFA I pili = CFA I pili (Escherichia coli, UniProt P0CK93+P25734); assay: biochemical; settings: read-out: inhibition of CFA I pili binding to glycophorin
[1] = biological target: heat-labile enterotoxin from E. coli (Escherichia coli, UniProt P0CK94); assay type: binding; settings: at the concentration employed in the assay
cholera toxin = cholera toxin (Vibrio cholerae serotype O1, UniProt P01556); assay: biochemical; settings: read-out: inhibition of binding of cholera toxin to ganglioside GD1b
cholera toxin, sequence (P01556 22-124 limits assumed): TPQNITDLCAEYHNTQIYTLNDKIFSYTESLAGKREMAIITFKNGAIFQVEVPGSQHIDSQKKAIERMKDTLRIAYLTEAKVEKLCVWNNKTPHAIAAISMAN

CFA I pili, sequence (P0CK93 24-170): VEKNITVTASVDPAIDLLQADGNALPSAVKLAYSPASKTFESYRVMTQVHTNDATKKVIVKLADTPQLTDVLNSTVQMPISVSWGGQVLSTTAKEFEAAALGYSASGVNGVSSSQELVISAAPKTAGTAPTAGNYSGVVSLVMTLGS
CFA I pili, sequence (P25734 23-360): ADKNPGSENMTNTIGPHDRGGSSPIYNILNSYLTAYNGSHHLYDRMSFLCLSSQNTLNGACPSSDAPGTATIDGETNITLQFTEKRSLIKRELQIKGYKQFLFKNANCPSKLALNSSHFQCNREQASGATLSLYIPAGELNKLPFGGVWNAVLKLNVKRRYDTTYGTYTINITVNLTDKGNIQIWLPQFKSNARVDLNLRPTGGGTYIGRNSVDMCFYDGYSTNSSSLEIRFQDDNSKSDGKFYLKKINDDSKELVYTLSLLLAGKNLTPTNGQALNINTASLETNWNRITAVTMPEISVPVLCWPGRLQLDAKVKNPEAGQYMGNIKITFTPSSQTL
heat-labile enterotoxin from E. coli, sequence (P0CK94 whole entry, looked up): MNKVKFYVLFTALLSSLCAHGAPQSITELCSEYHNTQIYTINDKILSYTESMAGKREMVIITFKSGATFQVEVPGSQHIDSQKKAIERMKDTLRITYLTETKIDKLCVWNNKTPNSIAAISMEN

SMILES	inhibition at 1000 µg/mL (CFA I pili)	inhibition of binding of heat-labile enterotoxin to ganglioside GD1b [1]	inhibition at 1000 µg/mL (cholera toxin)
NC1CCCCC1S[C@@H]1O[C@H](CO)[C@H](O)[C@H](O)[C@H]1O (stereo partly drawn) [Example B2, 2-Aminocyclohex-1-yl 1-Thio-β-D-galactopyranoside]	13 to 71%	at least 20%	
O=C(O)[C@H](Cc1c[nH]cn1)NC1CCCCC(S[C@@H]2O[C@H](CO)[C@H](O)[C@H](O)[C@H]2O)C1 (stereo partly drawn) [Example H5, Nα-[3-(1-Thio-β-D-galactopyranosyl)cyclohept-1-yl]-L-histidine]	13 to 71%		< 20%
CC(CC(C)S[C@@H]1O[C@H](CO)[C@H](O)[C@H](O)[C@H]1O)N[C@@H](Cc1c[nH]cn1)C(=O)O (stereo partly drawn) [Example H8, Nα-[4-(1-Thio-β-D-galactopyranosyl)pent-2-yl]-L-histidine]	13 to 71%		< 20%
CC1(C)CCC(N[C@@H](Cc2c[nH]cn2)C(=O)O)CC1S[C@@H]1O[C@H](CO)[C@H](O)[C@H](O)[C@H]1O (stereo partly drawn) [Example H9, Nα-[4,4-Dimethyl-3-(1-thio-β-D-galactopyranosyl)-cyclohex-1-yl]-L-histidine]	13 to 71%		< 20%
O=C(O)[C@H](Cc1c[nH]cn1)NC1CCCC(S[C@@H]2O[C@H](CO)[C@H](O)[C@H](O)[C@H]2O)C1 (stereo partly drawn) [Example H10, Nα-[3-(1-Thio-β-D-galactopyranosyl)cyclohex-1-yl]-L-histidine]	13 to 71%		< 20%
O=C(O)[C@H](Cc1c[nH]c2ccccc12)NC1CCCC1S[C@@H]1O[C@H](CO)[C@H](O)[C@H](O)[C@H]1O (stereo partly drawn) [Example I1, Nα-[2-(1-Thio-β-D-galactopyranosyl)cyclopent-1-yl]-L-tryptophan]	13 to 71%		≥ 20%
O=C(O)[C@H](Cc1c[nH]c2ccccc12)NC1CCCCC1S[C@@H]1O[C@H](CO)[C@H](O)[C@H](O)[C@H]1O (stereo partly drawn) [Example I2, Nα-[2-(1-Thio-β-D-galactopyranosyl)cyclohex-1-yl]-L-tryptophan]	13 to 71%	at least 20%	< 20%
CC1(C)CCC(N[C@@H](CCCNC(=N)N)C(=O)O)CC1S[C@@H]1O[C@H](CO)[C@H](O)[C@H](O)[C@H]1O (stereo partly drawn) [Example J9, Nα-[4,4-Dimethyl-3-(1-thio-β-D-galactopyranosyl)-cyclohex-1-yl]-L-arginine]	13 to 71%		< 20%
